Reference: ChEMBL document CHEMBL1132002, “Interaction of tyrosyl aryl dipeptides with S. aureus tyrosyl tRNA synthetase: inhibition and crystal structure of a complex” (Bioorg Med Chem Lett, 1999)
Square brackets hold non-standard residues; d marks the D form. Peptide text beside a SMILES is read from it. ξ: configuration not given here. ξHpg = NC(C(=O)O)c1ccc(O)cc1

System: Tyrosine--tRNA ligase (Staphylococcus aureus)
Assay: Compound was tested for inhibition of Staphylococcus aureus tyrosyl tRNA Synthetase; NI=No inhibition

| IC50 | SMILES |
| --- | --- |
| No inhibition | N[C@@H](Cc1ccc(O)cc1)C(=O)N[C@@H](C(=O)O)c1ccccc1 |
| No inhibition | COC(=O)C(NC(=O)[C@@H](N)Cc1ccc(O)cc1)c1ccc(O)cc1 (some centres not stated) (H-Tyr-[ξHpg]-OMe) |
